Reference: patent publication US11370798B2 (Vertex Pharmaceuticals Incorporated, priority 2012, dated 2022)

Test system: HCT116 colorectal cancer cells
Assay: Cisplatin sensitization assay (96 h cell viability MTS);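 further: Test-compound concentration that lowers the Cisplatin IC50 by a set fold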
Format: cell-based
Conditions: compound and Cisplatin added simultaneously, Cisplatin sensitization value
Summary of the method: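 Viability read by MTS (1 h at 37° C) after 96 h co-exposure at 37° C, 5% CO2. Test compound and cisplatin were dosed simultaneously in a full concentration matrix, each 2-fold serially diluted from 10 μM final; sensitization values binned in μM.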

| SMILES | Cisplatin Sensitization Assay |
| --- | --- |
| CS(=O)(=O)C1CCN(c2ccncc2NC(=O)c2c(N)nn3cc(F)cnc23)CC1 [I-N-190, 2-amino-6-fluoro-N-(4-(4-(methylsulfonyl)piperidin-1-yl)pyridin-3-yl)pyrazolo[1,5-a]pyrimidine-3-carboxamide] | +++ (Cisplatin sensitization value of <0.02 μM) |
| Nc1nn2cc(F)cnc2c1C(=O)Nc1cnccc1N1CCN2[C@@H](CCS2(=O)=O)C1 [I-N-247, (S)-2-amino-N-(4-(1,1-dioxidotetrahydro-2H-isothiazolo[2,3-a]pyrazin-5(3H)-yl)pyridin-3-yl)-6-fluoropyrazolo[1,5-a]pyrimidine-3-carboxamide] | +++ (Cisplatin sensitization value of <0.02 μM) |
| CN(C)C1CCN(c2ccncc2NC(=O)c2c(N)nn3cc(Cl)cnc23)CC1 [I-N-37, 2-amino-6-chloro-N-(4-(4-(dimethylamino)piperidin-1-yl)pyridin-3-yl)pyrazolo[1,5-a]pyrimidine-3-carboxamide] | ++ (Cisplatin sensitization value>0.02 μM but <0.2 μM) |
| Nc1nn2cc(F)cnc2c1C(=O)Nc1cnccc1N1CCN2CCOC[C@@H]2C1 [I-N-115, (S)-2-amino-6-fluoro-N-(4-(hexahydropyrazino[2,1-c][1,4]oxazin-8(1H)-yl)pyridin-3-yl)pyrazolo[1,5-a]pyrimidine-3-carboxamide] | +++ (Cisplatin sensitization value of <0.02 μM) |
| Nc1nn2cc(F)cnc2c1C(=O)Nc1cnccc1C1CCN(C2COC2)CC1 [I-C-10, 2-amino-6-fluoro-N-(4-(1-(oxetan-3-yl)piperidin-4-yl)pyridin-3-yl)pyrazolo[1,5-a]pyrimidine-3-carboxamide] | +++ (Cisplatin sensitization value of <0.02 μM) |
| Cc1ccnn1-c1ccncc1NC(=O)c1c(N)nn2cc(F)cnc12 [I-N-223, 2-amino-6-fluoro-N-(4-(5-methyl-1H-pyrazol-1-yl)pyridin-3-yl)pyrazolo[1,5-a]pyrimidine-3-carboxamide] | ++ (Cisplatin sensitization value>0.02 μM but <0.2 μM) |
| Nc1nn2cc(F)cnc2c1C(=O)Nc1cncc(F)c1N1CCCCC1 [I-N-270, 2-amino-6-fluoro-N-(5-fluoro-4-(piperidin-1-yl)pyridin-3-yl)pyrazolo[1,5-a]pyrimidine-3-carboxamide] | +++ (Cisplatin sensitization value of <0.02 μM) |
| CN1CCN(c2ccncc2NC(=O)c2c(N)nn3cc(CC#N)cnc23)CC1 [I-N-82, 2-amino-6-(cyanomethyl)-N-(4-(4-methylpiperazin-1-yl)pyridin-3-yl)pyrazolo[1,5-a]pyrimidine-3-carboxamide] | ++ (Cisplatin sensitization value>0.02 μM but <0.2 μM) |
| Nc1nn2cc(F)cnc2c1C(=O)Nc1cnccc1-c1ccc(S(=O)(=O)N2CCC2)cc1 [I-C-64, 2-amino-N-(4-(4-(azetidin-1-ylsulfonyl)phenyl)pyridin-3-yl)-6-fluoropyrazolo[1,5-a]pyrimidine-3-carboxamide] | +++ (Cisplatin sensitization value of <0.02 μM) |
| CN(C)C(=O)[C@H]1CC[C@@H](Oc2ccncc2NC(=O)c2c(N)nn3cc(F)cnc23)CC1 [I-O-17, 2-amino-N-(4-(((1s,4s)-4-(dimethylcarbamoyl)cyclohexyl)oxy)pyridin-3-yl)-6-fluoropyrazolo[1,5-a]pyrimidine-3-carboxamide] | +++ (Cisplatin sensitization value of <0.02 μM) |
| C[C@@H]1CN(C2COC2)CCN1c1ccncc1NC(=O)c1c(N)nn2cc(F)cnc12 [I-N-23, (R)-2-amino-6-fluoro-N-(4-(2-methyl-4-(oxetan-3-yl)piperazin-1-yl)pyridin-3-yl)pyrazolo[1,5-a]pyrimidine-3-carboxamide] | +++ (Cisplatin sensitization value of <0.02 μM) |
| Cc1ccc(-c2ccncc2NC(=O)c2c(N)nn3cc(F)cnc23)cn1 [I-C-22, 2-amino-6-fluoro-N-(6-methyl-[3,4′-bipyridin]-3′-yl)pyrazolo[1,5-a]pyrimidine-3-carboxamide] | ++ (Cisplatin sensitization value>0.02 μM but <0.2 μM) |
